The record followed here is US4281009A, “Hydantoin derivatives” (Nippon Zoki Pharmaceutical Co., Ltd., priority 1978, dated 1981).

Data set [1] concerns ddY-strain male mice. The experiment in a line: Effect of prolongation of sleeping time (hexobarbital). Type of data set: in vivo. Conditions: for change in vivo at 100 mg/kg / change in vivo at 300 mg/kg: Mus musculus, ip; for change in vivo at 100 mg/kg: 100 mg/kg intraperitoneal; for change in vivo at 300 mg/kg: 300 mg/kg intraperitoneal. As for the experimental part:
7. Effect of prolongation of sleeping time:
Groups of mice each comprising 10 ddY-strain male mice were used. Sodium salt of hexobarbital was given intraperitoneally. Thereafter, the period of time in which righting reflex disappeared was measured. The effect was evaluated on the basis of prolongation of time of disappearance of righting reflex by the intraperitoneal administration of the compounds of the present invention as compared with control mice.

Data set [2] relates to normal mice and SART stress mice. The experiment in a line: Analgesic effect, D'Amour-Smith method. The following applies: Mus musculus, ip, intraperitoneal 100 mg/kg. In kind it is in vivo, mice (ddY-strain male). As to the method:
5.3. D'Amour-Smith method:
Groups each comprising 10 ddY-strain male normal mice and SART stress mice to which SART stress had been applied for 4 days were used. The root of the tail of the mouse to which black ink was applied was irradiated with infrared rays for up to 15 seconds. Time required till escape response was observed was measured. The effect was shown by the ratio of the mice in which an average value of the response time at 30, 60, 90 and 120 minutes after the administration of the compounds of the present invention or other comparative drugs was prolonged to at least 2 times as long as the time before the administration.

Data set [3] relates to dd-strain male mice. The experiment in a line: Inhibitory effect on Tremorine-induced tremor. In kind it is in vivo. The following applies: tremorine 10 mg/Kg. As to the method: 9. Inhibitory effect on Tremorine-induced tremor:
Groups of mice each comprising 10-40 dd-strain male mice were used. Effect of the compounds of the present invention on tremor caused by tremorine was examined. The compounds of the present invention or DPH was given intraperitoneally. 45 minutes thereafter, 10 mg/Kg of tremorine was given intraperitoneally for inducing the tremor.

For data set [4], the system named is SART stress mice. The experiment in a line: Inhibitory effects on increase of heart rate and elongation of QRS-time in SART stress mice. Type of data set: in vivo, mice (dd-strain male). The following applies: 9th day, Average ± S.D. As to the method:
SART stress animals used in the tests described below were raised according to a method of Kita, et al. [Folia Pharmacol. Japan.: 71, 195-210 (1975)].
2. Inhibitory effects on increase of heart rate and elongation of QRS-time in stress animals:
Groups of mice each comprising 11 or 12 dd-strain male mice were divided into three groups in the same manner as above and heart rate and QRS-time were determined on the 9th day after initiation of the tests.

The test system of data set [5] is normal rats and SART stress rats. The experiment in a line: Analgesic effect, pain induced by Bradykinin. Conditions: intraperitoneal 100 mg/kg. In kind it is in vivo, rats (SD-strain male). As to the method: 5.4 Method of measuring a pain induced by Bradykinin:
Groups each comprising 4-8 SD-strain male normal rats and SART stress rats to which SART stress had been applied for 4 days were used. The tests were carried out according to the method of Deffenu et al. [Deffenu, G., Pegrassi, L., & Fumachi. B.; J. Pharm. Pharmacol.; 18, 135 (1966)] and Blane method [Blane, G. F.; J. Pharm. Pharmacol.; 19, 367 (1967)]. The effect judged was shown by ratio of the rats in which the effect was recognized according to the method of Abe, et al. [Abe, Kaneko & Takagi; Folia Pharmacol. Japon.; 67, 9-14 (1971)].

The test system of data set [6] is normal mice and SART stress mice. The experiment in a line: Analgesic effect, tail pressure method (Randall-Selitto's device). In kind it is in vivo, mice (ddY-strain male). Conditions: 60 minutes; for change in vivo at 100 mg/kg / change in vivo at 200 mg/kg: Mus musculus, ip, 1 h; for change in vivo at 100 mg/kg: intraperitoneal 100 mg/kg; for Analgesic effect: intraperitoneal 50 mg/kg; for change in vivo at 200 mg/kg: intraperitoneal 200 mg/kg. As for the experimental part:
5.1 Tail pressure method:
Randall-Selitto's device for determining analgesic effect by pressure stimulation was used. […]. The compounds of the present invention or other comparative drugs were given thereto and analgesic effect was determined. The effect was judged by measuring pressure applied 60 minutes after the intraperitoneal administration of the compounds of the present invention. The pressure thus measured was divided by a pressure before the administration. The value thus obtained was compared with that of a control group (to which 10 ml./Kg of 0.5% sodium salt of carboxymethylcellulose or 0.5% Tween 80 was given). When the compounds of the present invention were given perorally and other comparative drugs were given, an average of the pressure at 30, 60, 90 and 120 minutes after the administration was employed for evaluating the effect.

Data set [7] is described as follows: Acute toxicity test (LD50, Litchfield-Wilcoxon), rats. Conditions: rat, in vivo, ip, intraperitoneal. As for the experimental part:
(§1) Toxicity tests were carried out by intraperitoneal administration of the compound of the present invention to groups each comprising 10 ICR-strain mice and SD-strain rats. LD50 was calculated by the Litchfield-Wilcoxon method based on the number of death 72 hours after the administration.

In data set [8] the test system is normal mice and SART stress mice. The experiment in a line: Analgesic effect, acetic acid writhing method. In kind it is in vivo. Conditions: Mus musculus, sc, 100 mg/Kg subcutaneously. As for the experimental part:
5.2. Acetic acid writhing method: 0.1 ml./10 g of isotonic sodium chloride solution containing 0.7% acetic acid was given intraperitoneally to groups of mice each comprising 5 normal mice and 5 SART stress mice to which SART stress had been applied for 8 days. Writhing syndromes number appeared for 15 minutes after the administration was measured. The effect was evaluated by giving 100 mg/Kg of the compounds of the present invention or DPH subcutaneously and comparing the writhing syndromes number of the mice with that of control mice.
In general terms: An intraperitoneal irritant provokes the stretching counted in writhing tests.

Data set [9] is described as follows: Acute toxicity test (LD50, Litchfield-Wilcoxon), mice. Conditions: mouse, in vivo, ip, intraperitoneal. As to the method:
as §1

For data set [10], the system named is Wistar-strain male rats. The experiment in a line: Antiulcerogenic effect on Shay's ulcer (operative ulcer). The following applies: 10 times. Type of data set: in vivo. As for the experimental part: 6.2. Antiulcerogenic effect on Shay's ulcer (operative ulcer):
Tests were carried out by using groups of rats each comprising 5-10 Wistar-strain male rats according to Shay method [Shay Harry; Gastroenterology,; 5, 43 (1945)]. Ulcers in the anterior stomach were classified on the following basis:
2. 1-5 small ulcers (diameter of less than 3 mm)
3. 6 or more small ulcers or one big ulcer (diameter of more than 3 mm)
4. two or more big ulcers

In data set [11] the test system is dd-strain male mice. The experiment in a line: Antiulcerogenic effect on Takagi's restraint-plus-water-immersing ulcer. The following applies: Mus musculus, ip. Type of data set: in vivo. As to the method:
6.1 Antiulcerogenic effect on Takagi's restraint-plus-water-immersing ulcer: Groups each comprising 8-26 dd-strain male mice were used. The tests were carried out according to a method of Takagi, et al. [Chem. Pharm. Bull.; 12, 465 (1964)]. Sum of length of diseased parts in the glandular stomach was measured and it was compared with that of control group. The compounds of the present invention or DPH was given intraperitoneally immediately before the restraint and immersion in water.

Data set [12] has as its system spontaneously hypertensive rats (SHR). The experiment in a line: Antihypertensive effect in spontaneously hypertensive rats. The following applies: 60 minutes. Type of data set: in vivo. As to the method:
8. Antihypertensive effect: Groups of rats each comprising 6-9 spontaneously hypertensive rats (SHR) were used. The compounds of the present invention or DPH was given intraperitoneally. The rate of antihypertension 60 minutes after the administration was determined.

As usually defined, the LD50 is the dose at which mortality reaches 50%. A lower LD50 goes with a more toxic substance. By inhibition in vivo is commonly meant the share of the control response that was lost under treatment. With `O=C1NC(=O)C(c2ccccc2)(c2ccc(O)cc2)N1` (stereo not drawn) [Compound 7, 5-(4-Hydroxyphenyl)-5-phenylhydantoin], the “Effect of prolongation of sleeping time” value in data set [1] (20 mg/kg intraperitoneal) is recorded as 48.0%; in data set [1] (50 mg/kg intraperitoneal), 101.7%. Besides, the figures for the change in vivo at 100 mg/kg in [1], in data set [6] (SART stress mice) and in data set [6] (normal mice) were 112%, 106% and 38.1%, respectively. Further, the responders at 100 mg/kg came to 50% in data set [2] (SART stress mice) and 40% in data set [2] (normal mice). In addition, the “Inhibitory effect on Tremorine-induced tremor” value (from here on “Inhibitory effect”) in data set [3] (100 mg/kg intraperitoneal) is 35%. Further, the Heart rate in [4] (50 mg/kg/day) came out at 690 ± 56 min⁻¹. The QRS-time in data set [4] (50 mg/kg/day) is on record as 12.6 ± 1.5 1/1000 sec. Also, the Analgesic effect is reported as 66.7% in data set [5] (SART stress rats), 50% in data set [5] (normal rats), 76.5% in data set [6] (SART stress mice) and 31.5% in [6] (normal mice). The LD50 at 72 h in [7] (female), in data set [7] (male), in [9] (female) and in data set [9] (male) was over 5000 mg/kg throughout. Also, the inhibition in vivo at 100 mg/kg was 31.3% in [8] (SART stress mice) and 3.8% in data set [8] (normal mice).

With `CCC1(c2ccc(O)cc2)NC(=O)NC1=O` (stereo not drawn) [Compound 24, 5-Ethyl-5-(4-hydroxyphenyl)hydantoin], the “Antiulcerogenic effect on Shay's ulcer (operative ulcer)” value is on record as 17.5% in data set [10] (50 mg/kg intraperitoneal) and 32.2% in data set [10] (100 mg/kg intraperitoneal). Moreover, the “Effect of prolongation of sleeping time” value in [1] (50 mg/kg intraperitoneal) is on record as 42.1%. The compound further showed a change in vivo at 100 mg/kg in [1] of 54.4%. The change in vivo at 300 mg/kg in [1] was determined as 84.4%. Moreover, in [3] (150 mg/kg intraperitoneal), the “Inhibitory effect” value stood at 40%. In [4] (100 mg/kg/day), this compound came in with a Heart rate of 729 ± 58 min⁻¹. Also, in [4] (100 mg/kg/day), the QRS-time was 13.3 ± 0.9 1/1000 sec. The values for the Analgesic effect in [5] (SART stress rats) and in data set [5] (normal rats) were 50% and 20%, respectively. For the same compound, the values for the change in vivo at 200 mg/kg in data set [6] (SART stress mice) and in [6] (normal mice) were 31.2% and 20.4%, respectively. In addition, the LD50 at 72 h in data set [7] (female), in data set [7] (male), in data set [9] (female) and in data set [9] (male) was over 5000 mg/kg in each case. In data set [11] (75 mg/kg intraperitoneal), the inhibition in vivo at 75 mg/kg amounted to 11.9%. In addition, the inhibition in vivo at 125 mg/kg in [11] (125 mg/kg intraperitoneal) was found to be 27.5%.

For `Cc1cc(C2(c3ccc(O)cc3)NC(=O)NC2=O)ccc1O` (stereo not drawn) [Compound 30, 5-(4-Hydroxy-3-methylphenyl)-5-(4-hydroxyphenyl)hydantoin], the change in vivo at 100 mg/kg in data set [1] amounted to 26.6%; in data set [6] (SART stress mice), 97.5%; in data set [6] (normal mice), 59.8%. The compound further registered a change in vivo at 300 mg/kg in data set [1] of 97.4%. The responders at 100 mg/kg in data set [2] (SART stress mice) turned out to be 30%; in data set [2] (normal mice), 20%. The compound also returned a Heart rate in data set [4] (100 mg/kg/day) of 731 ± 71 min⁻¹. In addition, in data set [4] (100 mg/kg/day), the QRS-time was 13.4 ± 1.1 1/1000 sec. Also, the Analgesic effect in data set [6] (SART stress mice) came to 43.6%; in [6] (normal mice) it was 12.4%. Further, the LD50 at 72 h in [7] (female), in data set [7] (male), in [9] (female) and in data set [9] (male) was over 5000 mg/kg throughout. For the same compound, the inhibition in vivo at 100 mg/kg came out at 25.2% in data set [8] (SART stress mice) and 3.9% in data set [8] (normal mice). Also, the Rate of antihypertension in [12] (150 mg/Kg intraperitoneal) was 10.9%; in [12] (300 mg/Kg intraperitoneal), 28.6%.

`O=C1NC(=O)C(c2ccc(O)cc2)(c2ccc(O)c(Cl)c2)N1` (stereo not drawn) [Compound 33, 5-(3-Chloro-4-hydroxyphenyl)-5-(4-hydroxyphenyl)hydantoin]: the “Antiulcerogenic effect on Shay's ulcer (operative ulcer)” value in [10] (150 mg/kg intraperitoneal) is given as 54.2%. In addition, the change in vivo at 100 mg/kg was found to be 24.2% in data set [1], 69.8% in data set [6] (SART stress mice) and 29.5% in data set [6] (normal mice). In data set [1], this compound registered a change in vivo at 300 mg/kg of 32.9%. In addition, the figures for the responders at 100 mg/kg in [2] (SART stress mice) and in data set [2] (normal mice) were 30% and 20%, respectively. In addition, the “Inhibitory effect” value in [3] (100 mg/kg intraperitoneal) was found to be 29%. Moreover, the 50% lethal dose (LD50) at 72 h in data set [7] (female), in data set [7] (male), in data set [9] (female) and in data set [9] (male) was over 5000 mg/kg in each case. Further, in data set [11] (150 mg/kg intraperitoneal), the inhibition in vivo at 150 mg/kg came out at 29.8%.
